Assays:
[1] = biological target: Vascular endothelial growth factor receptor 2 (Homo sapiens, UniProt P35968); experiment: Binding affinity to VEGFR2 (unknown origin) assessed as inhibition constant
[2] = biological target: Tyrosine-protein kinase Yes (Homo sapiens, UniProt P07947); experiment: Inhibition of Yes (unknown origin)
[3] = Cmax in nu/nu mouse at 4 mg/kg, ip by LCMS analysis; format: ADME, organism-based; details: in vivo
[4] = AUC (0 to infinity) in nu/nu mouse at 20 mg/kg, ip by LCMS analysis; format: ADME, organism-based; details: in vivo
[5] = AUC (0 to infinity) in nu/nu mouse at 40 mg/kg, ip by LCMS analysis; format: ADME, organism-based; details: in vivo
[6] = Terminal half life in Sprague-Dawley rat at 4 mg/kg, iv administered as bolus dose by LCMS analysis; format: ADME, organism-based; details: in vivo, read-out: beta t1/2 (converted)
[7] = system: HT-29; experiment: Inhibition of camptothecin induced DNA damage in human HT-29 cells assessed as increase in mitotic index by measuring histone H3 phosphorylation at S10 residue at 0.001 to 1 uM measured after 16 hrs presence of nocodazole by dot blot assay; format: functional, cell-based; details: HT-29, 16 h
[8] = system: HT-29; experiment: Induction of apoptosis in gemcitabine induced human HT-29 cells assessed as apoptotic cell death measured after 32 hrs by PI staining based flow cytometry analysis (reference value: 1.2%); format: functional
[9] = system: HT-29; experiment: Cytotoxicity in human HT-29 cells assessed as cell survival at 180 nM measured after 4 to 48 hrs by coulter counter method relative to control; format: functional; details: time 4-48 hrs, read-out: Activity
[10] = system: HT-29; experiment: Potentiation of camptothecin induced cytotoxicity in human HT-29 cells assessed as cell survival at 540 nM measured after 4 to 48 hrs by coulter counter method relative to camptothecin alone; format: functional; details: time 4-48 hrs, read-out: Activity
[11] = system: COLO 205; experiment: Antiproliferative activity against human COLO 205 cells deficit of p53 expression assessed as inhibition of cell growth measured after 96 hrs by MTT assay; format: functional, cell-based; details: COLO 205, 96 h
[12] = system: MDA-MB-231; experiment: Antiproliferative activity against human MDA-MB-231 cells deficit of p53 expression assessed as inhibition of cell growth measured after 96 hrs by MTT assay; format: functional, cell-based; details: MDA-MB-231, 96 h
[13] = system: K562; experiment: Antiproliferative activity against human K562 cells deficit of p53 expression assessed as inhibition of cell growth measured after 96 hrs by MTT assay; format: functional, cell-based; details: K562, 96 h
[14] = system: HT-29; experiment: Potentiation factor, ratio of IC50 for human HT-29 cells to IC50 for human HT-29 cells in presence of doxorubicin; format: functional
[15] = system: COLO 205; experiment: Potentiation factor, ratio of IC50 for human COLO 205 cells to IC50 for human COLO 205 cells in presence of SN-38; format: functional
[16] = system: PC-3; experiment: Potentiation factor, ratio of IC50 for human PC-3 cells to IC50 for human PC-3 cells in presence of SN-38; format: functional
[17] = system: MDA-MB-231; experiment: Potentiation factor, ratio of IC50 for human MDA-MB-231 cells to IC50 for human MDA-MB-231 cells in presence of gemcitabine; format: functional
[18] = system: MDA-MB-231; experiment: Potentiation factor, ratio of IC50 for human MDA-MB-231 cells to IC50 for human MDA-MB-231 cells in presence of doxorubicin; format: functional
[19] = system: HT-29; experiment: Inhibition of gemcitabine induced cell cycle arrest in human HT-29 cells assessed as disappearance of cyclin B level at 360 nM measured after 24 hrs by immunoblot analysis relative to control; format: functional
[20] = system: COLO 205; experiment: Antitumor activity against human COLO 205 cells xenografted in athymic nude mouse model assessed as tumor growth inhibition at 40 mg/kg, ip administered twice daily in presence of gemcitabine (Gemcitabine alone= 58%); format: functional; details: read-out: TGI
[21] = system: COLO 205; experiment: Antitumor activity against human COLO 205 cells xenografted in athymic nude mouse model assessed as tumor growth inhibition at 24 mg/kg, ip administered twice daily in presence of gemcitabine (Gemcitabine alone= 58%); format: functional; details: read-out: TGI
[22] = system: COLO 205; experiment: Antitumor activity against human COLO 205 cells xenografted in athymic nude mouse model assessed as potentiated tumor growth inhibition at 7.5 mg/kg, ip administered twice daily in presence of gemcitabine relative to control; format: functional; details: read-out: TGI
[23] = system: COLO 205; experiment: Antitumor activity against human COLO 205 cells xenografted in athymic nude mouse model assessed as potentiated tumor growth inhibition at 30 mg/kg, ip administered twice daily in presence of gemcitabine relative to control; format: functional; details: read-out: TGI
[24] = system: COLO 205; experiment: Antitumor activity against human COLO 205 cells xenografted in athymic nude mouse model assessed as tumor growth delay by measuring test to control tumor ratio at 4 mg/kg, ip administered once daily in presence of gemcitabine (Gemcitabine alone = 8 %); format: functional
[25] = system: COLO 205; experiment: Antitumor activity against human COLO 205 cells xenografted in athymic nude mouse model assessed as gross log cell kill at 7.5 mg/kg, ip administered once daily in presence of gemcitabine (Gemcitabine alone = 0.27%); format: functional
[26] = Toxicity in athymic nude mouse assessed as effect on body weight at 4 to 20 mg/kg, ip administered once daily in presence of gemcitabine; format: organism-based; details: in vivo, dose 4-20 mg/kg

Sequence of Tyrosine-protein kinase Yes (P07947 whole entry): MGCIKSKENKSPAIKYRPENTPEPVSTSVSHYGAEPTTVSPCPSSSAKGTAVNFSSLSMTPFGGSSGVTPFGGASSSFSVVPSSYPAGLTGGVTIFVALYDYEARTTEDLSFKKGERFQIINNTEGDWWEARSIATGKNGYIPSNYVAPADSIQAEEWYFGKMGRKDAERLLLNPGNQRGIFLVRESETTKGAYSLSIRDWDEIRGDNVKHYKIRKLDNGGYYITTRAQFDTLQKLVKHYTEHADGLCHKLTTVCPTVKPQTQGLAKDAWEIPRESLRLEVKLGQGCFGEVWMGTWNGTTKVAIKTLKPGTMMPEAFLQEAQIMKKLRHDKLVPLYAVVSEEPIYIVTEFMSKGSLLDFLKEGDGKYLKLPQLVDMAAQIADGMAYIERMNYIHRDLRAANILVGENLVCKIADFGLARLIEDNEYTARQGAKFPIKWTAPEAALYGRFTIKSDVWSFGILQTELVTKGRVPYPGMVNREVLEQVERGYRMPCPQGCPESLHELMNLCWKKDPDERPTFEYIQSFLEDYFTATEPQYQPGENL
Sequence of Vascular endothelial growth factor receptor 2 (P35968 whole entry): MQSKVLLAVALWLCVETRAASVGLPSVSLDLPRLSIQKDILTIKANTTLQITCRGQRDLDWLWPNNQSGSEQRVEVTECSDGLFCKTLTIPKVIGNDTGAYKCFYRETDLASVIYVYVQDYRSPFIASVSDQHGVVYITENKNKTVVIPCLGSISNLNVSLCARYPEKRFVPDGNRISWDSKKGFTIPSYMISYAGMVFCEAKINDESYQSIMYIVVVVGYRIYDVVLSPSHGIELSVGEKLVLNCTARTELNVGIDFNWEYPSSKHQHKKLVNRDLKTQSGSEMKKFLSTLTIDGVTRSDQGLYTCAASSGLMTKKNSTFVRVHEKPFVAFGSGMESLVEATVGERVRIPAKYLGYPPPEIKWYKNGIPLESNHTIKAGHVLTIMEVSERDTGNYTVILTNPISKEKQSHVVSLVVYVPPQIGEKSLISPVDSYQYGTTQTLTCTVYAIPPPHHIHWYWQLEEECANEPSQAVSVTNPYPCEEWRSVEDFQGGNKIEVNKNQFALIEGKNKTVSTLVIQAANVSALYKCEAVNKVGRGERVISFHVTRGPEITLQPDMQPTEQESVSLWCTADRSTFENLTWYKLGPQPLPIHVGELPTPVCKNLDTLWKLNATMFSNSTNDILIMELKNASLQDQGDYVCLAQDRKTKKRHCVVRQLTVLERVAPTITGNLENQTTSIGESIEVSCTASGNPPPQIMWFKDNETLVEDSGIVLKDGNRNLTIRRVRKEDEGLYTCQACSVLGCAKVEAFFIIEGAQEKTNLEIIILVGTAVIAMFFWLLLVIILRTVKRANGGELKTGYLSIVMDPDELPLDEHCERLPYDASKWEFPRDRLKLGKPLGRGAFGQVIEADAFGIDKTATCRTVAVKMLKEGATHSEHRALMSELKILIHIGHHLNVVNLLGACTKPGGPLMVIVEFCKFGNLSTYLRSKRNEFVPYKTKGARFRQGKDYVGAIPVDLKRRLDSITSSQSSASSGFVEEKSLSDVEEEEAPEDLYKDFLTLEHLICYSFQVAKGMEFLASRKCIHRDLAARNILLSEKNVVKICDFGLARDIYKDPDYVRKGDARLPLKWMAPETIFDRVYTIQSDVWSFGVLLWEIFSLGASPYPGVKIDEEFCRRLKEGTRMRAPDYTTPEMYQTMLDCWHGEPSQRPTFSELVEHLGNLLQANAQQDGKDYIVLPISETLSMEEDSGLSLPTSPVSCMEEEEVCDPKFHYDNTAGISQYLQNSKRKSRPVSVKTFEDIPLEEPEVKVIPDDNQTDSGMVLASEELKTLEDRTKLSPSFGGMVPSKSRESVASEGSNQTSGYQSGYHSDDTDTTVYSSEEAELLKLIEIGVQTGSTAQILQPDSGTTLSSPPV

## Cn1cc(-c2[nH]c3cc(NC(=O)[C@H](N)C4CCCCC4)cc4c3c2C=NNC4=O)cn1
[1]
  Ki: 16 nM
[2]
  IC50: 29 nM
[3]
  Cmax: 270 ng/mL
[4]
  AUC(0-inf): 2670 ng·h/mL
[5]
  AUC(0-inf): 25800 ng·h/mL
[6]
  half-life: 2.9 h
[7]
  EC50: 42 nM
[8]
  Activity: 18.1%
[9]
  viability at 0.18 µM: 97%
[10]
  viability at 0.54 µM: 78%
[11]
  IC50: 1300 nM
[12]
  IC50: 1400 nM
[13]
  IC50: 420 nM
[14]
  PF50: 2.2
[15]
  PF50: 2.1
[16]
  PF50: 1.3
[17]
  PF50: 3.6
[18]
  PF50: 2.25
[19]
  inhibition at 0.36 µM: 100%
[20]
  inhibition in vivo at 40 mg/kg: 90%
[21]
  inhibition in vivo at 24 mg/kg: 81%
[22]
  inhibition in vivo at 7.5 mg/kg: 50%
[23]
  inhibition in vivo at 30 mg/kg: 64%
[24]
  T/C: 8
[25]
  LCK: 0.52
[26]
  Activity: Non-Toxic

Reference: ChEMBL document CHEMBL5705884, “Breaching the DNA damage checkpoint via PF-00477736, a novel small-molecule inhibitor of checkpoint kinase 1” (Mol Cancer Ther, 2008)
